Data reported in patent US20050215551A1, “1-[2H-1-benzopyran-2-one-8-yl]- piperazine derivatives for the treatment of movement disorders” (SOLVAY PHARMACEUTICALS B.V., priority 2004, published 2005).

Assays:
Neuropeptide Y1 = Neuropeptide Y1 (Homo sapiens, UniProt P25929); experiment: Receptor binding Neuropeptide Y1; details: radioligand [125I]-PYY, read-out: Ki(nM) Compound 1
Protocol: (§1) Receptor binding data were obtained by CEREP (128, rue Danton, 92500 Rueil-Malmaison, France) or at Solvay Pharmaceuticals B.V., using well documented standard procedures. Affinity for 5-HT1A receptors for instance, was determined by testing the ability of the compounds of the invention to displace [^3H]-2-(di-n-propylamino)-8-hydroxytetralin ([^3H]-8-OH-DPAT) from its specific binding sites in rat frontal cortex homogenates. This test is based on the method described by Gozlan et al. (Nature, 305, (1983), pages 140-142).
(§2) The binding data collected in the table below were either obtained by CEREP (128, rue Danton, 92500 Rueil-Malmaison, France) or at Solvay Pharmaceuticals B.V., using well documented standard procedures.

5-HT3 = 5-HT3 (Homo sapiens, UniProt P46098); experiment: Receptor binding 5-HT3; details: radioligand [3H]-BRL 43694, read-out: Ki(nM) Compound 1
Sequence of 5-HT3 (P46098 24-478): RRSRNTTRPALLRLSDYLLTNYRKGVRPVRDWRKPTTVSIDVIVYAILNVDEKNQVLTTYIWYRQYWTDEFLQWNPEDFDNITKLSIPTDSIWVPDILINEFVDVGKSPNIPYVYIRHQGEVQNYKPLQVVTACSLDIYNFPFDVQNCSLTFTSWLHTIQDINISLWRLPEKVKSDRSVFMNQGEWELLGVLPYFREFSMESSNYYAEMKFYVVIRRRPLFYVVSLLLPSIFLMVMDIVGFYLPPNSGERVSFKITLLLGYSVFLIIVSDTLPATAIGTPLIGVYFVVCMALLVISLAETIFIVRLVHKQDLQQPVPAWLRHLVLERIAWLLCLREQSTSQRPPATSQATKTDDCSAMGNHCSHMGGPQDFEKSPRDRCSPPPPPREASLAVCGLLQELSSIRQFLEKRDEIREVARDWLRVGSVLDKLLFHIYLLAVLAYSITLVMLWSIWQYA
Protocol: as §1, §2

Vasopressine-V1A = Vasopressine-V1A (Homo sapiens, UniProt P37288); experiment: Receptor binding Vasopressine-V1A; details: radioligand [3H]-vasopressine, read-out: Ki(nM) Compound 1
Sequence of Vasopressine-V1A (P37288 whole entry): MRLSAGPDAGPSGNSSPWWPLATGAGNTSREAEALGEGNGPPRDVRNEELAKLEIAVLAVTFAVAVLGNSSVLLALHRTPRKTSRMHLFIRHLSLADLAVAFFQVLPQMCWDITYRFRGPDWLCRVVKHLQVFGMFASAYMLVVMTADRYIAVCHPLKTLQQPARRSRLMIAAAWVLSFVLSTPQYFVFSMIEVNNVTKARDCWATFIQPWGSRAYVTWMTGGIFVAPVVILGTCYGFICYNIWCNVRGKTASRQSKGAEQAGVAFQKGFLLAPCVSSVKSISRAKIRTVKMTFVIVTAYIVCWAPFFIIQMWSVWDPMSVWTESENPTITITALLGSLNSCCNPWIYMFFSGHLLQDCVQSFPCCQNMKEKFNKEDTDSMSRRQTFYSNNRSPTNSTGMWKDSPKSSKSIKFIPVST
Protocol: as §1, §2

angiotensin-AT1 = angiotensin-AT1 (Homo sapiens, UniProt P30556); experiment: Receptor binding angiotensin-AT1; details: radioligand [125I]-angiotensin II, read-out: Ki(nM) Compound 1
Sequence of angiotensin-AT1 (P30556 whole entry): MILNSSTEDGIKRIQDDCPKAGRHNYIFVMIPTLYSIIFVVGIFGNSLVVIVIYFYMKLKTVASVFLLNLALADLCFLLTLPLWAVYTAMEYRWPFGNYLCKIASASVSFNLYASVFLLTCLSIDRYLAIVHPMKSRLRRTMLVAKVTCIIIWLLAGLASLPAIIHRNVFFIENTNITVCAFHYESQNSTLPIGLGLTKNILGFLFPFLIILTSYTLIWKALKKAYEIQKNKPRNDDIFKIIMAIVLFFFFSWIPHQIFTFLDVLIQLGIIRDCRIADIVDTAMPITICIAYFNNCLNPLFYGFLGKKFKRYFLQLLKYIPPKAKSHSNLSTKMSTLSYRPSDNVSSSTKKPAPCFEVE
Protocol: as §1, §2

5-HT2B = 5-HT2B (Homo sapiens, UniProt P41595); experiment: Receptor binding 5-HT2B; details: radioligand [3H]-LSD, read-out: Ki(nM) Compound 1
Sequence of 5-HT2B (P41595 whole entry): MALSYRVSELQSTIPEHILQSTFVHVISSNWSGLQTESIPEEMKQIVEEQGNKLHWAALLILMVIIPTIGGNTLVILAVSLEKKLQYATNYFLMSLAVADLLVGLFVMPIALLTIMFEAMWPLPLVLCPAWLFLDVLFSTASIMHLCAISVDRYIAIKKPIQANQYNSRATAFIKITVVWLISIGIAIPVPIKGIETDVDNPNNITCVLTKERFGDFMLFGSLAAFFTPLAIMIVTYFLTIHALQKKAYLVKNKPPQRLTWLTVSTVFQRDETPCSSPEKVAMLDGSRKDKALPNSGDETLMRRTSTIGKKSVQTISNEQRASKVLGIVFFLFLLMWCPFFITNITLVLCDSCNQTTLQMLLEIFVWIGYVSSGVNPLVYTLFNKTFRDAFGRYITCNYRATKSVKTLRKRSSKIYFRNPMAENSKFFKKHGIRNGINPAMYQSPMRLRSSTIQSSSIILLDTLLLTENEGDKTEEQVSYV
Protocol: as §1, §2

CRF = CRF (Homo sapiens, UniProt P34998); experiment: Receptor binding CRF; details: radioligand [125I]-oCRF, read-out: Ki(nM) Compound 1
Protocol: as §1, §2

VIP1 = VIP1 (Homo sapiens, UniProt P32241); experiment: Receptor binding VIP1; details: radioligand [125I]-VIP, read-out: Ki(nM) Compound 1
Protocol: as §1, §2

β2-adrenergic = β2-adrenergic (Homo sapiens, UniProt P07550); experiment: Receptor binding β2-adrenergic; details: radioligand [3H]-CGP 12177, read-out: Ki(nM) Compound 1
Protocol: as §1, §2

α1A-adrenergic = α1A-adrenergic (Rattus norvegicus, UniProt P43140); experiment: Receptor binding α1A-adrenergic; details: radioligand [3H]-prazosin, read-out: Ki(nM) Compound 1
Sequence of α1A-adrenergic (P43140 whole entry): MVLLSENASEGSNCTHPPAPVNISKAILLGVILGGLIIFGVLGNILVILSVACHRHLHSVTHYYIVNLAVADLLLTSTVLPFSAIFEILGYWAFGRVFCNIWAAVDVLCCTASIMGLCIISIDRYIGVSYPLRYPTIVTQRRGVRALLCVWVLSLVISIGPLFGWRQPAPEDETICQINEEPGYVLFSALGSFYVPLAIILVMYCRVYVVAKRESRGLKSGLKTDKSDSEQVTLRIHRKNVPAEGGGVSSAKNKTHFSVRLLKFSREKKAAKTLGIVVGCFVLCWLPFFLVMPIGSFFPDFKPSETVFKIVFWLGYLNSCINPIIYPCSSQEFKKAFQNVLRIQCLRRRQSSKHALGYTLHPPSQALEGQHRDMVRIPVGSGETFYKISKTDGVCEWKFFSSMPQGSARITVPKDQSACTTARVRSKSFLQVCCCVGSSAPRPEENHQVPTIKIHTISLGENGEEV
Protocol: as §1, §2

5-HT1B = 5-HT1B (Rattus norvegicus, UniProt P28564); experiment: Receptor binding 5-HT1B; details: radioligand [125I]-cyanopindolol, read-out: Ki(nM) Compound 1
Sequence of 5-HT1B (P28564 whole entry): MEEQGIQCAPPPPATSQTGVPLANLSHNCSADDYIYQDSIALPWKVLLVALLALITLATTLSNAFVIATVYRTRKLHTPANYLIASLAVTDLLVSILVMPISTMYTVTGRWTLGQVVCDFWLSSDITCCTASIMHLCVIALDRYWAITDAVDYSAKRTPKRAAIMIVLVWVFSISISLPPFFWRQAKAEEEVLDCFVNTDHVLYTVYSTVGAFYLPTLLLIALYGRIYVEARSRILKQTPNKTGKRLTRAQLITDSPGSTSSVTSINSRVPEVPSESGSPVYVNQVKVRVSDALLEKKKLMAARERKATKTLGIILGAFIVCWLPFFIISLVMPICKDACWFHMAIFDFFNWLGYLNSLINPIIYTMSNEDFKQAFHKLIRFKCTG
Protocol: as §1, §2

Endothelin-ETA = Endothelin-ETA (Homo sapiens, UniProt P25101); experiment: Receptor binding Endothelin-ETA; details: radioligand [125I]-endothelin-1, read-out: Ki(nM) Compound 1
Sequence of Endothelin-ETA (P25101 21-427): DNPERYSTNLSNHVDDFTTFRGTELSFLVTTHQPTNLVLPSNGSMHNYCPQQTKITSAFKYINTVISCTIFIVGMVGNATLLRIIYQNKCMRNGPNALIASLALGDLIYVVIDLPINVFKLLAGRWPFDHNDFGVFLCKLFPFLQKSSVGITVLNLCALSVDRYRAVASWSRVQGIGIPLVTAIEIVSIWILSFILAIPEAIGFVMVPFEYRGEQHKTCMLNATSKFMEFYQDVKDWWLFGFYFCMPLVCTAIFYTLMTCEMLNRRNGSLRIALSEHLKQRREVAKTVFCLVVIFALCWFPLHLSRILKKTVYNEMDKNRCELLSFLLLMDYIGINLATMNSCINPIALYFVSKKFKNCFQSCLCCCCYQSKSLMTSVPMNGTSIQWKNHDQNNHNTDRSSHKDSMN
Protocol: as §1, §2

Muscarine-M3 = Muscarine-M3 (Homo sapiens, UniProt P20309); experiment: Receptor binding Muscarine-M3; details: radioligand [3H]-4-DAMP, read-out: Ki(nM) Compound 1
Sequence of Muscarine-M3 (P20309 whole entry): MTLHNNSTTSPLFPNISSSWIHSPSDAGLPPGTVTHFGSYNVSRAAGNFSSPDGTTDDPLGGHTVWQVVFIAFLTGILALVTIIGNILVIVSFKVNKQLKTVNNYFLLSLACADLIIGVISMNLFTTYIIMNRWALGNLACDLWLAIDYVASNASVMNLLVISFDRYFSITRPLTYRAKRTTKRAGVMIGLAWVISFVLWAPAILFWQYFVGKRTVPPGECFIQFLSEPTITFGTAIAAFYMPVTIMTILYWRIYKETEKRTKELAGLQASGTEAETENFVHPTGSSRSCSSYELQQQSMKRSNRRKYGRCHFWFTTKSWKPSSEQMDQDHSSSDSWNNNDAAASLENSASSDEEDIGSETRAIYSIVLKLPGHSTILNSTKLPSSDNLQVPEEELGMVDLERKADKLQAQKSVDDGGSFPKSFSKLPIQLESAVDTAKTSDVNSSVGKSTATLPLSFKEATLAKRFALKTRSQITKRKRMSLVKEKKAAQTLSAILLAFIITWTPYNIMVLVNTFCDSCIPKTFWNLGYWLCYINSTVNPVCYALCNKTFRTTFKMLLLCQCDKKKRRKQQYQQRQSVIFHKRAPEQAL
Protocol: as §1, §2

5-HT2C = 5-HT2C (Homo sapiens, UniProt P28335); experiment: Receptor binding 5-HT2C; details: radioligand [125I]-DOI, read-out: Ki(nM) Compound 1
Sequence of 5-HT2C (P28335 33-458): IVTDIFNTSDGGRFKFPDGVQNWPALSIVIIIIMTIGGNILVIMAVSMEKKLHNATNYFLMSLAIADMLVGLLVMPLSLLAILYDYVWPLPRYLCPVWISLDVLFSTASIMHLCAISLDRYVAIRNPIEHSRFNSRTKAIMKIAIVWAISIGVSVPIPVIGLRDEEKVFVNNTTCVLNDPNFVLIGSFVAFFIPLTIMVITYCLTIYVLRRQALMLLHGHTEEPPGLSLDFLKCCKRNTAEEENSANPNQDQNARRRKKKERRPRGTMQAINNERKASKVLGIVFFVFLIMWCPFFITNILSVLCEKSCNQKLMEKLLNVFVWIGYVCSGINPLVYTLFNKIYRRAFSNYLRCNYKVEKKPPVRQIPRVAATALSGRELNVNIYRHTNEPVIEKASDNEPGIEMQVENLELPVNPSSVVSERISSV
Protocol: as §1, §2

Muscarine-M4 = Muscarine-M4 (Homo sapiens, UniProt P08173); experiment: Receptor binding Muscarine-M4; details: radioligand [3H]-4-DAMP, read-out: Ki(nM) Compound 1
Protocol: as §1, §2

κ-opiate = κ-opiate (Rattus norvegicus, UniProt P34975); experiment: Receptor binding κ-opiate; details: radioligand [3H]-U 69593, read-out: Ki(nM) Compound 1
Sequence of κ-opiate (P34975 whole entry): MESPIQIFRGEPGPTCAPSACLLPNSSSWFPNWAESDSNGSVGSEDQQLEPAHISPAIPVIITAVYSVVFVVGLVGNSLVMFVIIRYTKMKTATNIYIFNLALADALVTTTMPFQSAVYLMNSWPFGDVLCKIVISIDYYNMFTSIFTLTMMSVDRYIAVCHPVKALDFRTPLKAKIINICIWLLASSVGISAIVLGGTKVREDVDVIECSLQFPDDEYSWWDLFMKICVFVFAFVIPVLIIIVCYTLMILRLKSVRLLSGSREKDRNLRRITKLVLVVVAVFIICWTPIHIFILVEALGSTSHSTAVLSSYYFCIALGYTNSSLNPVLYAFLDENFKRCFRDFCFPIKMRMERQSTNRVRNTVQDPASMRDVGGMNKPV
Protocol: as §1, §2

Muscarine-M5 = Muscarine-M5 (Homo sapiens, UniProt P08912); experiment: Receptor binding Muscarine-M5; details: radioligand [3H]-4-DAMP, read-out: Ki(nM) Compound 1
Sequence of Muscarine-M5 (P08912 whole entry): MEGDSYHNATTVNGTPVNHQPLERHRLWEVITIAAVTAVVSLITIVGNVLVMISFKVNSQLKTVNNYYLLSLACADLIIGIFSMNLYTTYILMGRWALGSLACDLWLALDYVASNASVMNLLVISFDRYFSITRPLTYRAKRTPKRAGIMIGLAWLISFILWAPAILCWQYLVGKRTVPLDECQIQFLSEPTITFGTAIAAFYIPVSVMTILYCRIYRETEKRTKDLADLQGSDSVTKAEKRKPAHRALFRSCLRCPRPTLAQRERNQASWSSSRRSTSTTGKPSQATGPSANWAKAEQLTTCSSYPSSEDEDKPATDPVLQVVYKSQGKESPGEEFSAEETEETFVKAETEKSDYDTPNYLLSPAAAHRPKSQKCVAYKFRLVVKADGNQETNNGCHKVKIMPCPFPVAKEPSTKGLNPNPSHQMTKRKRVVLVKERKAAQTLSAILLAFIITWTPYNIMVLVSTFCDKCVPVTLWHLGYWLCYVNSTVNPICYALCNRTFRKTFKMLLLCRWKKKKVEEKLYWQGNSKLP
Protocol: as §1, §2

Dopamine-D4 = Dopamine-D4 (Homo sapiens, UniProt P21917); experiment: Receptor binding Dopamine-D4; details: radioligand [3H]-spiperone, read-out: Ki(nM) Compound 1
Protocol: as §1, §2

How did the Ki (Neuropeptide Y1) turn out when `Nc1cc2cccc(N3CCNCC3)c2oc1=O` [Compound 1, 3-amino-8-(1-piperazinyl)-2H-1-benzopyran-2-one] was run?
Its Ki is greater than 1000 nM.

What about the Ki (5-HT3) of the same compound?
The Ki was 250 nM.

And the Ki (Vasopressine-V1A)?
The Ki was greater than 1000 nM.

What about the Ki (angiotensin-AT1) of the same compound?
Its Ki is greater than 1000 nM.

What about the Ki (5-HT2B) of the same compound?
Its Ki is 320 nM.

What about the Ki (CRF) of the same compound?
Its Ki is greater than 10000 nM.

And the Ki (VIP1)?
Its Ki is greater than 1000 nM.

What about the Ki (β2-adrenergic) of the same compound?
The Ki was 40 nM.

And the Ki (α1A-adrenergic)?
Its Ki is 630 nM.

And the Ki (5-HT1B)?
The Ki was 2 nM.

And the Ki (Endothelin-ETA)?
The Ki was greater than 1000 nM.

What about the Ki (Muscarine-M3) of the same compound?
Its Ki is greater than 1000 nM.

And the Ki (5-HT2C)?
Its Ki is greater than 1000 nM.

And the Ki (Muscarine-M4)?
Its Ki is greater than 1000 nM.

And the Ki (κ-opiate)?
Its Ki is greater than 1000 nM.

And the Ki (Muscarine-M5)?
Its Ki is greater than 1000 nM.

And the Ki (Dopamine-D4)?
The Ki was greater than 1000 nM.
